Results taken from patent publication US20100152129A1 (priority 2008, published 2010).
Several values for one entry are separate records, joined by “and”; a condition that tells them apart may be missing. Equal values may be shown once.

What was measured:
Panc-1 cells [1] = test: Protein expression using high content cell imaging system, and efficacy score; type: cell-based; conditions: for Efficacy score: cumulative over proteins of Table 7
Description: The data was generated using cell imaging system, where, cells after drug exposure were treated with protein specific antibody, followed by detection markers for the antibody. The images were generated and protein levels quantitated as an indication of drug effect.
Methodology: Panc-1 cells were seeded at a density of 5000 cells per well in 96 well plates and allowed recovery for 24 hrs in 5% CO2 incubator. After recovery, cells were challenged with Gemcitabine (IC30) for 24 hrs. After 24 hrs Gemcitabine was removed and fresh medium was added. […] The combination efficacy was identified against single treatments. At the end of the experiment Panc-1 cells were fixed and permeabilized. All the primary antibodies were added at a concentration according to manufacture protocol. After one hour incubation the cells were washed three times and labeled with secondary antibodies tagged with Dye Light 548 and nucleus was stained with Hoechest3342. After antibody labeling, cells were stained with the Cellomics whole Cell Stain Green to identify the cell's cytoplasmic area. Then all the plates were scanned in Cellomics ArrayScan® VTI HCS Reader. The results were analyzed using software that is designed for measuring the read from the imaging system.
Expression of proteins listed in Table 7 were determined in terms of fluorescence unit obtained by using target activation algorithm from High content imaging system from Cellomics. • Protein expression data expressed as fluorescent units from Table 7 were used to generate expression ratio by comparing drug treatments (individual or combination) against the normal control with no drug treatment. The ratio of expression which is considered as dys-regulation (1.5 fold above or below the range for up-regulation and down regulation respectively) is subtracted from the normal range (±1.5) and is used to measure the efficacy score.
Expression ratio=protein expression during drug treatment/protein expression under normal control.
Efficacy score =Cumulative score (expression ratio−±1.50) for all proteins.

[2] = preclinical studies; cited from earlier work
Panc-1 cells [3] = test: CCK-8 based cytotoxicity assay; type: cell-based
From the text: CCK-8 based cytotoxicity assay is a sensitive nonradioactive colorimetric assay for determining the number of viable cells in cell proliferation and cytotoxicity assays. WST-8 (2-(2-methoxy-4-nitrophenyl)-3-(4-nitrophenyl)-5-(2,4-disulfophenyl)-2H tetrazolium, monosodium salt) is bioreduced by cellular dehydrogenases to an orange formazan product that is soluble in tissue culture medium. The amount of formazan produced is directly proportional to the number of living cells.
Test System: The Panc-1 cell line was procured from ATCC (American Tissue type Culture Collection USA, catalog number: CRL-1469) and the frozen vial was stored in liquid nitrogen container.
Panc-1 cells were seeded at a density of 3000 cells/well in a 96 well plate and allowed to recover for 24 hrs in a CO2 incubator at 37° C. […] The final DMSO concentration was 0.5% in wells. Plates were incubated for 24, 48, and 72 hrs. At the end of incubation CCK-8 was added and kept at 37° C. for 3 hrs following which absorbance was measured at 450 nm.

[4] = test system: xenograft models of colon cancer (HCT-116, SW-480) and non-small cell lung cancer (H-460); conditions: oral administration; SCID mice; cited from earlier work
[5] = 6 hours post treatment, control 3
[6] = 36 hours post treatment, control 98

What does the source list for `CN1CC[C@@H](c2c(O)cc(O)c3c(=O)cc(-c4ccc(C(F)(F)F)cc4Cl)oc23)[C@@H]1CO.Cl` (relative stereo) [P1446A]?
PTN protein expression (Panc-1 cells [1]; 6 hours post treatment, control 1): 3 fluorescence units; GADD45-α protein expression (Panc-1 cells [1]; [5]): 3 fluorescence units; ID1 protein expression (Panc-1 cells [1]; [5]): 38 fluorescence units; P27 protein expression (Panc-1 cells [1]; 6 hours post treatment, control 6): 4 fluorescence units; CDC25B protein expression (Panc-1 cells [1]; 6 hours post treatment, control 7): 4 fluorescence units; CDKN2A protein expression (Panc-1 cells [1]; 6 hours post treatment, control 8): 49 fluorescence units; CCND1 protein expression (Panc-1 cells [1]; 6 hours post treatment, control 74): 87 fluorescence units; GAPDH protein expression (Panc-1 cells [1]; 6 hours post treatment, control 80): 78 fluorescence units; CASP3 protein expression (Panc-1 cells [1]; 6 hours post treatment, control 147): 102 fluorescence units; MMP-1 protein expression (Panc-1 cells [1]; 6 hours post treatment, control 501): 235 fluorescence units; COX15 protein expression (Panc-1 cells [1]; 6 hours post treatment, control 627): 628 fluorescence units; COX2 protein expression (Panc-1 cells [1]; 6 hours post treatment, control 635): 457 fluorescence units; BAX protein expression (Panc-1 cells [1]; 6 hours post treatment, control 819): 421 fluorescence units; VEGF protein expression (Panc-1 cells [1]; 6 hours post treatment, control 829): 235 fluorescence units; BCL2 protein expression (Panc-1 cells [1]; 6 hours post treatment, control 830): 587 fluorescence units; pRB protein expression (Panc-1 cells [1]; 6 hours post treatment, control 1240): 1489 fluorescence units; Efficacy score (Panc-1 cells [1]; 6 hours): 2.1; GADD45-α protein expression (Panc-1 cells [1]; 16 hours post treatment, control 13): 46 fluorescence units; CDC25B protein expression (Panc-1 cells [1]; 16 hours post treatment, control 54): 45 fluorescence units; CDKN2A protein expression (Panc-1 cells [1]; 16 hours post treatment, control 64): 55 fluorescence units; P27 protein expression (Panc-1 cells [1]; 16 hours post treatment, control 67): 37 fluorescence units; PTN protein expression (Panc-1 cells [1]; 16 hours post treatment, control 76): 34 fluorescence units; ID1 protein expression (Panc-1 cells [1]; 16 hours post treatment, control 77): 67 fluorescence units; CCND1 protein expression (Panc-1 cells [1]; 16 hours post treatment, control 90): 85 fluorescence units; GAPDH protein expression (Panc-1 cells [1]; 16 hours post treatment, control 100): 100 fluorescence units; CASP3 protein expression (Panc-1 cells [1]; 16 hours post treatment, control 202): 1157 fluorescence units; VEGF protein expression (Panc-1 cells [1]; 16 hours post treatment, control 579): 420 fluorescence units; BCL2 protein expression (Panc-1 cells [1]; 16 hours post treatment, control 644): 546 fluorescence units; BAX protein expression (Panc-1 cells [1]; 16 hours post treatment, control 711): 688 fluorescence units; COX15 protein expression (Panc-1 cells [1]; 16 hours post treatment, control 718): 896 fluorescence units; MMP-1 protein expression (Panc-1 cells [1]; 16 hours post treatment, control 929): 420 fluorescence units; COX2 protein expression (Panc-1 cells [1]; 16 hours post treatment, control 1109): 1063 fluorescence units; pRB protein expression (Panc-1 cells [1]; 16 hours post treatment, control 2583): 1721 fluorescence units; Efficacy score (Panc-1 cells [1]; 16 hours): 10.3; GADD45-α protein expression (Panc-1 cells [1]; 36 hours post treatment, control 19): 43 fluorescence units; COX2 protein expression (Panc-1 cells [1]; 36 hours post treatment, control 86): 43 fluorescence units; P27 protein expression (Panc-1 cells [1]; 36 hours post treatment, control 96): 65 fluorescence units; CCND1 protein expression (Panc-1 cells [1]; [6]): 55 fluorescence units; CDC25B protein expression (Panc-1 cells [1]; [6]): 70 fluorescence units; GAPDH protein expression (Panc-1 cells [1]; [6]): 63 fluorescence units; ID1 protein expression (Panc-1 cells [1]; [6]): 83 fluorescence units; PTN protein expression (Panc-1 cells [1]; 36 hours post treatment, control 100): 99 fluorescence units; CASP3 protein expression (Panc-1 cells [1]; 36 hours post treatment, control 265): 1220 fluorescence units; BAX protein expression (Panc-1 cells [1]; 36 hours post treatment, control 715): 1670 fluorescence units; COX15 protein expression (Panc-1 cells [1]; 36 hours post treatment, control 722): 1878 fluorescence units; VEGF protein expression (Panc-1 cells [1]; 36 hours post treatment, control 1093): 1195 fluorescence units; MMP-1 protein expression (Panc-1 cells [1]; 36 hours post treatment, control 1316): 1195 fluorescence units; BCL2 protein expression (Panc-1 cells [1]; 36 hours post treatment, control 1410): 1330 fluorescence units; CDKN2A protein expression (Panc-1 cells [1]; 36 hours post treatment, control 1441): 1395 fluorescence units; pRB protein expression (Panc-1 cells [1]; 36 hours post treatment, control 2840): 1978 fluorescence units; Efficacy score (Panc-1 cells [1]; 36 hours): 7.6; oral bioavailability [2]: good oral bioavailability; % Cytotoxicity (Panc-1 cells [3]; P1446A 30 nM, 24 hrs): 29.825%; % Cytotoxicity (Panc-1 cells [3]; P1446A 30 nM, 72 hrs): 23.33%; % Cytotoxicity (Panc-1 cells [3]; P1446A 100 nM, 24 hrs): 26.525%; % Cytotoxicity (Panc-1 cells [3]; P1446A 100 nM, 48 hrs): 24.596%; % Cytotoxicity (Panc-1 cells [3]; P1446A 300 nM, 24 hrs): 34.36%; % Cytotoxicity (Panc-1 cells [3]; P1446A 300 nM, 48 hrs): 28.636%; % Cytotoxicity (Panc-1 cells [3]; P1446A 300 nM, 72 hrs, hydrochloride): 31.05% and 31.075%; tumor growth inhibition [4]: significant tumor growth inhibition
